# Data reported in patent US7875270B2, “Treatment solution and method for preventing posterior capsular opacification by selectively inducing detachment and/or death of lens epithelial cells” (Abbott Medical Optics Inc., priority 2002, dated 2011).
# What was measured:
# [1] = system: human corneal endothelial cells (CEDCs); assay: Confluent CEDC monolayers exposed to solutions; MTT cell viability; type: cell-based; conditions: 28 μM, 112 μM and 224 μM bumetanide, ≦200 mM NaCl, 3 μl of 5N NaOH
# Experimental: As described below, the confluent monolayers of LECs, CEDCs, and RPECs grown in 96-well flat-bottom plates are exposed to varying concentrations of NaCl (an osmolyte) solution. Two hundred μl of NaCl solution (prepared as described below) are added to each well at concentrations of 137 mM, 170 mM, 340 mM, 680 mM, 1360 mM and 2000 mM NaCl, respectively. The solutions have a pH of 8.0±0.4. The concentrations of NaCl correspond to final osmolarities of about 285 to 4000 mOsm/L, respectively.
# The primary and first passages of human lens epithelial cells, human corneal endothelial cells, and human retinal-pigmented epithelial cells are cultured. The LECs, the CEDCs, and the RPECs are isolated from post-mortem eyes by using standard techniques of cell isolation and enzyme digestion. See Uebersax E D, Grindstaff R D and Defoe D M Exp Eye Res. 2000 March; 70(3): 381-90; Wagner L M, Saleh S M, Boyle D J, and Takemoto D J. Mol Vis. 2002 Mar. 14; 8: 59-66; Cammarata P R, Schafer G, Chen S W, Guo Z, and Reeves R E. Invest Ophthalmol Vis Sci. 2002 February; 43(2): 425-33; Rakic J M, Galand A, and Vrensen G F. Exp Eye Res. 2000 November; 71(5): 489-94. LECs and CEDCs are cultured in Eagle's minimum essential medium (MEM). RPECs are cultured in Ham's F10 medium, supplemented with 2 mM glutamine, 25 mmol/L Hepes, pH 7.4, 10 U/mL penicillin, and 10 μg/mL streptomycin and 15% heat-inactivated foetal cow serum (FCS). […]
# After treatment, the treated cells are thoroughly washed, and cultured with fresh media for twelve hours before cell viability is assessed. The capability of these cells to survive at the indicated hypertonic stress levels is assessed by an MTT assay 12-24 hours post-exposure.
# MTT assay is an assay to assess mitochondria function, performed as described by Mosmann (Mosmann, T. J Immunol Methods. 1983 Dec. 16; 65(1-2): 55-63. The tetrazolium salt 3-(4,5-dimethylthiazol-2-yl)-2,5-diphenyl tetrazolium bromide (MTT; supplied by Sigma Chemical Co.) is dissolved in Phosphate's Balanced Salt (PBS) Solutions at 5 mg/ml and sterilized by passage through a 0.22 μm Millipore filter. MTT stock solution is added to growth media at a ratio of 1 to 10. Cells are incubated with this growth media for three to four hours. In cells that are alive at the time of adding MTT, mitochondrial dehydrogenase cleaves the tetrazolium ring into a dark blue formazan reaction product, which builds up in the cell. […] Cells in each well are scored as MTT-positive if they are completely filled with reaction product (in the case of unattached cells) or contain many formazan crystals emanating from multiple foci (in the case of attached or spread cells). MTT-reacted cultures are then lysised by dimethyl sulfoxide (DMSO) and read in a Microplate Reader to obtain a measure of cell viability. […]
# [2] = system: human LECs-CCCs freshly removed from cataract operation; assay: In situ treatment of LECs attached to capsulorhexis lens capsule (LECs-CCC); type: cell-based
# Experimental: The in situ effects of a treatment solution comprising dihydrochlorothiazide (DHCT) (a cotransport interference agent from the group of the thiazide and related diuretics) and hyperosmotic NaCl on human LECs is examined. The treatment is tested on LECs that are still attached to a continuous curvilinear capsulorhexis lens capsule (LECs-CCC) which are freshly removed from a human cataract operation.
# The LECs-CCCs are obtained from a cataract operation and immediately put in freshly prepared Eagle's Minimum Essential Medium (MEM) supplemented with 2 mM glutamine, 25 mmol/L Hepes (pH 7.4) without foetal cow serum (FCS) and is transferred to the laboratory for evaluation. Viable LECs are identified by staining the LECs-CCCs for five minutes with 0.2% Trypan Blue. The sheets containing more than 70% viable LECs are used to assess the efficacy of the treatment. […]
# In the first step, a hyperosmotic solution of NaCl is prepared by making a stock solution of 2 M NaCl by adding 58.44 g NaCl (supplied by Sigma Chemical Co., U.S.) to 500 ml dH2O. The desired concentration of osmotic NaCl is prepared by diluting the 2M stock solution with dH2O. For example, to make a hyperosmotic solution of 170 mM NaCl, the 2M NaCl stock solution was diluted with dH2O at a ratio of […]. To make a hyperosmotic solution of 200 mM NaCl, the 2M NaCl stock solution is diluted with dH2O at a ratio of 1 to 9. Final osmolarities (mOsm/kg/H2O) are determined by a freezing point depression method using cryoscopic osmometry.
# In the second step, DHCT stock solution is made by adding 25 mg DHCT to 1 ml dH2O. […]
# The treatment is applied by exposing the LECs-CCCs for five minutes in a small petri dish containing the treatment solution. The treatment solution is removed after five minutes exposure by a syringe and then the fresh PBS is added in the petri dish to wash away the treatment solution. The LECs-CCCs are washed three times. The changes of the LECS are monitored under a microscope. Microscope photographs are taken at 0, 2 and 5 minutes and after wash.
smiles,measurement,setting,value
CCCCNc1cc(C(=O)O)cc(S(N)(=O)=O)c1Oc1ccccc1 [bumetanide],CEDCs killed or removed,[1],< 30%
same,LEC changes after exposure,[2]; 308 μm bumetanide and hyperosmotic 170 or 200 mM NaCl,"do not detach, but arrest and die while shrunken"
same,LEC death by trypan blue exclusion,"[2]; 308 μm bumetanide and hyperosmotic NaCl, after washing",cells died after treatment
